Series [1] concerns the target T1, E3 ubiquitin-protein ligase CBL-B (Homo sapiens, UniProt Q13191). Kind of series: Displacement of FAM-labeled probe from recombinant biotinylated Cbl-b (unknown origin) expressed in Escherichia coli BL21(DE3) Tuner cells by TR-FRET assay.
The nature of series [2]: Lipophilicity, log D of the compound in octanol and sodium phosphate buffer at pH 7.4 incubated for 3 hrs under shaking condition by shake flask method based LC-MS/MS analysis. The class given is physicochemical.
Series [3] has as its target T1, E3 ubiquitin-protein ligase CBL-B. The series is described as follows: Inhibition of Cbl-b in cryo-preserved human CD3-positive T cells assessed as increase in IL-2 production preincubated for 1 hr followed by alpha-CD3 coated stimulation for 24 hrs by flow cytometry method. In kind it is cell-based, CD3-positive T cell. In general terms: Flow cytometry measures light scatter and fluorescence of single cells or particles in a stream.

Series [4] has as its target T2, Cholecystokinin receptor type A (Homo sapiens, UniProt P32238).
T2 sequence (P32238 whole entry): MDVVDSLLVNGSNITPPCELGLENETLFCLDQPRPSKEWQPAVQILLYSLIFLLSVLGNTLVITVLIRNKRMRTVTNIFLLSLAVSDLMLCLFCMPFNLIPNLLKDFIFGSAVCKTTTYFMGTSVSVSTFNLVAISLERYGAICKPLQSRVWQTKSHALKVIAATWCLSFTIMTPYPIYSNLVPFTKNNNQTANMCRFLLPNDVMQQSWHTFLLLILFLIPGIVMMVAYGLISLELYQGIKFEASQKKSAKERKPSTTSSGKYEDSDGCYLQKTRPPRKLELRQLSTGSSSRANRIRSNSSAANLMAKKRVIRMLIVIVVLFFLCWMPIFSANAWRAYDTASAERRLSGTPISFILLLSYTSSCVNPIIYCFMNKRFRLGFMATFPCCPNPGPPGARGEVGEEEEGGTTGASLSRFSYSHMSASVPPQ
The series is described as follows: Displacement of […] from human CCKA receptor expressed in CHO cell membrane incubated for 60 mins by scintillation counter method. In kind it is toxicity, cell membranes.

The target of series [5] is T1, E3 ubiquitin-protein ligase CBL-B. The series is described as follows: Binding affinity to avidin-biotinylated Cbl-b at (36 to 427 residues) (unknown origin) assessed as dissociation constant by SPR analysis. On the technique in general: Surface plasmon resonance follows binding to a sensor surface in real time, without labels.
For series [6] the target is unchanged. The series is described as follows: Inhibition of recombinant Cbl-b (unknown origin) mediated ZAP70 ubiquitination incubated for 60 mins by TR-FRET assay. A general note: TR-FRET usually uses a lanthanide donor and a delayed reading to cut background.
The target is the same in series [7]. Kind of series: Inhibition of recombinant Cbl-b (unknown origin) ubiquitination incubated for 60 mins in presence of ATP by TR-FRET assay.

The structures appear in SMILES notation. pEC50, pIC50, pKd, pKi: −log10 of the molar value.

T1 sequence (Q13191 whole entry): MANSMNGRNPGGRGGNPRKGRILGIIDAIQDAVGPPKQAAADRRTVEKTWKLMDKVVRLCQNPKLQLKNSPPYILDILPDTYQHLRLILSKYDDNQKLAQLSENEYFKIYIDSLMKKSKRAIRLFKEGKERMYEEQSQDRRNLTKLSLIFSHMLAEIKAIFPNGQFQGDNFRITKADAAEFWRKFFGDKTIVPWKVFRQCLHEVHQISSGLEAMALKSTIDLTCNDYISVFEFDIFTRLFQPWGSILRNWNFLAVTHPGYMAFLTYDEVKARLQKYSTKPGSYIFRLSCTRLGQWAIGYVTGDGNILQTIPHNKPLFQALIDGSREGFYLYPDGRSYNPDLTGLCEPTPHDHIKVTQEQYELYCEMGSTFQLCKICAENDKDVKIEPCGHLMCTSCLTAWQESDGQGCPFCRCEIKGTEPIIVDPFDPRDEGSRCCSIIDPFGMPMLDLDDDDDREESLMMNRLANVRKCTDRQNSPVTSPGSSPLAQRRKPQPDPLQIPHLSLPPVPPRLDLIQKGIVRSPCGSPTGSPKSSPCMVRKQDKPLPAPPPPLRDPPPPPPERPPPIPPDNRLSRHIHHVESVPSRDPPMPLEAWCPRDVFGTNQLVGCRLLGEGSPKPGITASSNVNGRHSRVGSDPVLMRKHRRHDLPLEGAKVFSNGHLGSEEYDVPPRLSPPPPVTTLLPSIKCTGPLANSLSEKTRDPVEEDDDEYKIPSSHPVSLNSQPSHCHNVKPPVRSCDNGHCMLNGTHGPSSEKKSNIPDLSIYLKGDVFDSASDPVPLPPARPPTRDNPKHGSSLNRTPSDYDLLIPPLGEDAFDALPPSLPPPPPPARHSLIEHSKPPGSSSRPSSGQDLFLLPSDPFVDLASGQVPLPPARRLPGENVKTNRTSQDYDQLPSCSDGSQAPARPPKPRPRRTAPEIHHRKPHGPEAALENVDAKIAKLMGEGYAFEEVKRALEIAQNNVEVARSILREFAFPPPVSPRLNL

For `C[C@H]1CN(Cc2ccccc2C(=O)N[C@H]2N=C(c3ccccc3)c3ccc(C(=O)N4CCN(C)C(=O)C4)cc3NC2=O)CCO1`, in series [1], the pIC50 (as a rule, −log10 of the IC50, conventionally taken in molar units) is 7.89. Moreover, the logD (commonly lipophilicity at a set pH, counting ionised and neutral species) at 3 h in series [2] turned out to be 2.5. In addition, the pEC50 – broadly, the negative decadic logarithm of the EC50, by convention in mol/L – in series [3] was 5.78. Also, the pKi – broadly, the negative decadic logarithm of the Ki, by convention in mol/L – in series [4] was less than 4.00.
In the case of `O=C(NC1N=C(c2ccccc2)c2ccccc2NC1=O)c1cnccc1CN1CCOCC1` (racemic), the pIC50 in series [1] is 5.89. Besides, the logD at 3 h in series [2] was determined as 2.7.
For `C[C@H]1CCCN(Cc2cc3c(c(C(F)(F)F)c2)CN(c2cccc([C@]4(c5nncn5C)C[C@@H](C)C4)c2)C3=O)C1`, the pIC50 in series [1] was 8.05. Besides, in series [5], the pKd (in general, the negative decadic logarithm of the Kd, by convention in mol/L) is 8.52.
With `C[C@@H]1CN(Cc2ccccc2C(=O)NC2N=C(c3ccccc3)c3ccccc3NC2=O)CCO1` (mixture of isomers), the pIC50 in series [1] is 7.51. The same compound returned a logD at 3 h in series [2] of 4.1.
In the case of `O=C(N[C@@H]1N=C(c2ccccc2)c2ccccc2NC1=O)c1ccccc1CN1CCOCC1`, the pIC50 in series [1] was 5.10. Moreover, the logD at 3 h in series [2] is 3.9.
Regarding `O=C(NC1N=C(c2cc[nH]c(=O)c2)c2ccccc2NC1=O)c1ccccc1CN1CCOCC1` (racemic), in series [1], the pIC50 is 4.96. In series [2], this compound showed a log distribution coefficient (logD) at 3 h of 1.7.
For the compound `O=C(NC1N=C(c2ccccc2)c2ccccc2NC1=O)c1ccccc1CN1CCCCC1` (racemic), the pIC50 in series [1] is less than 4.00.
For the compound `O=C(NC1N=C(c2ccc[nH]c2=O)c2ccccc2NC1=O)c1ccccc1CN1CCOCC1` (racemic), the pIC50 in series [1] was 4.70. This compound displayed a logD at 3 h in series [2] of 1.2.
`COCCNC(=O)c1ccc2c(c1)NC(=O)[C@@H](NC(=O)c1ccccc1CN1CCO[C@@H](C)C1)N=C2c1ccccc1`: in series [1], the pIC50 was 7.89. In series [2], this compound came in with a logD at 3 h of 3.7. In series [3], the pEC50 was 5.58. For the same compound, the pKi in series [4] is 4.61.
`O=C(NC1N=C(c2ccccc2)c2ccccc2NC1=O)c1ccccc1N1CCOCC1` (racemic): in series [1], the pIC50 was less than 4.00.
Take `C[C@H]1CN(Cc2ccccc2C(=O)NC2N=C(c3ccccc3)c3ccccc3NC2=O)CCO1` (mixture of isomers): the pIC50 in series [1] was 7.59. For the same compound, the logD at 3 h in series [2] amounted to 4.2.
In the case of `C[C@@H]1CN(Cc2ccccc2C(=O)N[C@H]2N=C(c3ccccc3)c3ccccc3NC2=O)CCO1`, the pIC50 in series [1] was 8.00. For the same compound, in series [2], the logD at 3 h turned out to be 4.1. In series [3], the pEC50 is less than 4.52. For the same compound, the pKi in series [4] was 5.58.
Turning to `C[C@@H]1CN(Cc2ccccc2C(=O)NC2N=C(c3ccccc3)c3ccccc3NC2=O)C[C@H](C)O1` (mixture of isomers), the pIC50 in series [1] is 5.74. Also, the logD at 3 h in series [2] is 4.3.
As to `O=C(NC1N=C(c2ccccc2)c2ccccc2NC1=O)c1ccccc1CN1CCn2nccc2C1` (racemic), in series [1], the pIC50 is 6.15. Further, the logD at 3 h in series [2] was 3.9.
Turning to `C[C@H]1CN(Cc2ccccc2C(=O)N[C@H]2N=C(c3ccccc3)c3ccccc3NC2=O)CCO1`, in series [1], the pIC50 was 7.89. The compound further came in with a logD at 3 h in series [2] of 4.1. The pEC50 in series [3] is 4.85. In series [4], this compound gave a pKi of 5.43.
For the compound `O=C(NC1N=C(c2ccccc2)c2ccccc2NC1=O)c1ccccc1CN1CCOCC1` (racemic), the pIC50 in series [1] is 6.68. In addition, the logD at 3 h in series [2] was determined as 3.8. Besides, the pKd in series [5] was 6.40.
With `O=C(NC1N=C(c2ccccc2)c2ccccc2NC1=O)c1ccoc1CN1CCOCC1` (racemic), the pIC50 in series [1] is 5.82. For the same compound, the logD at 3 h in series [2] worked out at 3.1.
The like results for `O=C(NC1N=C(c2ccccc2)c2ccccc2NC1=O)c1sccc1CN1CCOCC1` (racemic) were, in that order, 6.44 and 3.3.
Turning to `C[C@@H]1COCCN1Cc1ccccc1C(=O)NC1N=C(c2ccccc2)c2ccccc2NC1=O` (mixture of isomers), in series [1], the pIC50 is 5.32. The same compound had a logD at 3 h in series [2] of 3.9.
`Cn1ncc2c1CN(Cc1ccccc1C(=O)NC1N=C(c3ccccc3)c3ccccc3NC1=O)C2` (racemic): in series [1], the pIC50 was 6.46. In series [2], this compound gave a logD at 3 h of 3.8.
With `O=C(N[C@H]1N=C(c2ccccc2)c2ccccc2NC1=O)c1ccccc1CN1CCOCC1`, the pIC50 in series [1] is 7.03. In series [2], this compound showed a logD at 3 h of 3.9.
The matching figures for `C[C@H]1COCCN1Cc1ccccc1C(=O)NC1N=C(c2ccccc2)c2ccccc2NC1=O` (mixture of isomers): 5.72 and 4.
For the compound `O=C(NC1N=C(c2ccccc2)c2ccccc2NC1=O)c1ccccc1CN1CCn2nncc2C1` (racemic), the pIC50 in series [1] was 6.52. The same compound gave a logD at 3 h in series [2] of 2.9.
For the compound `C[C@H]1CN(Cc2ccccc2C(=O)N[C@H]2N=C(c3ccccc3)c3ccncc3NC2=O)CCO1`, the pIC50 in series [6] is 4.43; in series [1] it was 7.82; in series [7], 4.30. Besides, in series [2], the logD at 3 h was found to be 3.3. Also, the pEC50 in series [3] is 6.39. In addition, the pKi in series [4] was less than 4.00.
In the case of `O=C(NC1N=C(c2ccncc2)c2ccccc2NC1=O)c1ccccc1CN1CCOCC1` (racemic), the pIC50 in series [1] is 5.70. This compound also registered a logD at 3 h in series [2] of 2.6.
The matching figures for `CC1(C)CN(Cc2ccccc2C(=O)NC2N=C(c3ccccc3)c3ccccc3NC2=O)CCO1` (racemic): 5.41 and 4.3.
